# In the supplement of paper PMC10307832:
# Experiments:
# Assay in all cases: relative viability (nuclei count vs DMSO), 5 days (fraction); higher = more cells survive
# ABC-1 = system: ABC-1
# Outline: (§1)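 Cells from lung cancer lines were seeded into 1536-well plates and, one day later, dosed by pin tool. Treatments were either a single drug or a fixed dose of an anchor drug with five library-drug doses (not always all listed) in √10 steps. After 5 days, nuclei were stained in a one-step fixation (final 0.05% Triton X-100, 1% formaldehyde, 1 ug/ml Hoechst) and counted on 4× images, and relative viability is the treated-to-vehicle nuclei ratio, as the median of duplicate plates.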
# CAL-12T = system: CAL-12T
# Outline: as §1
# COR-L23 = system: COR-L23
# Outline: as §1
# EKVX = system: EKVX
# Outline: as §1
# H3255 = system: H3255
# Outline: as §1
# HCC-15 = system: HCC-15
# Outline: as §1
# HCC-827 = system: HCC-827
# Outline: as §1
# LK-2 = system: LK-2
# Outline: as §1
# NCI-H1355 = system: NCI-H1355
# Outline: as §1
# NCI-H1437 = system: NCI-H1437
# Outline: as §1
# NCI-H1563 = system: NCI-H1563
# Outline: as §1
# NCI-H1734 = system: NCI-H1734
# Outline: as §1
# NCI-H2228 = system: NCI-H2228
# Outline: as §1
# NCI-H2405 = system: NCI-H2405
# Outline: as §1
# NCI-H322M = system: NCI-H322M
# Outline: as §1
# NCI-H520 = system: NCI-H520
# Outline: as §1
# NCI-H661 = system: NCI-H661
# Outline: as §1
# PC-14 = system: PC-14
# Outline: as §1
# PC-3 [JPC-3] = system: PC-3 [JPC-3]
# Outline: as §1
# RERF-LC-KJ = system: RERF-LC-KJ
# Outline: as §1
# SW 1573 = system: SW 1573
# Outline: as §1
structure (smiles),measurement,setting,value
O=C(O)c1ccc(-c2c[nH]c3ncc(-c4ccccc4)cc23)cc1C1CCCC1 + C[C@]1(O)C[C@@H](c2nc(-c3ccc4ccc(-c5ccccc5)nc4c3)c3c(N)nccn32)C1 [Linsitinib] (partner 1 µM),relative viability,ABC-1; first compound 0.04 µM,0.753
same,relative viability,ABC-1; first compound 0.1265 µM,0.808
same,relative viability,ABC-1; first compound 0.4 µM,0.962
same,relative viability,ABC-1; first compound 1.265 µM,0.716
same,relative viability,CAL-12T; first compound 0.04 µM,0.799
same,relative viability,CAL-12T; first compound 0.1265 µM,0.834
same,relative viability,CAL-12T; first compound 0.4 µM,0.963
same,relative viability,CAL-12T; first compound 1.265 µM,0.6
same,relative viability,COR-L23; first compound 0.04 µM,0.866
same,relative viability,COR-L23; first compound 0.1265 µM,0.951
same,relative viability,COR-L23; first compound 0.4 µM,0.771
same,relative viability,COR-L23; first compound 1.265 µM,0.444
same,relative viability,EKVX; first compound 0.04 µM,0.984
same,relative viability,EKVX; first compound 0.1265 µM,1.18
same,relative viability,EKVX; first compound 0.4 µM,1.11
same,relative viability,EKVX; first compound 1.265 µM,0.713
same,relative viability,H3255; first compound 0.04 µM,1
same,relative viability,H3255; first compound 0.1265 µM,0.994
same,relative viability,H3255; first compound 0.4 µM,0.935
same,relative viability,H3255; first compound 1.265 µM,0.909
same,relative viability,HCC-15; first compound 0.04 µM,0.869
same,relative viability,HCC-15; first compound 0.1265 µM,0.928
same,relative viability,HCC-15; first compound 0.4 µM,0.785
same,relative viability,HCC-15; first compound 1.265 µM,0.567
same,relative viability,HCC-827; first compound 0.04 µM,0.966
same,relative viability,HCC-827; first compound 0.1265 µM,0.976
same,relative viability,HCC-827; first compound 0.4 µM,0.884
same,relative viability,HCC-827; first compound 1.265 µM,0.702
same,relative viability,LK-2; first compound 0.04 µM,0.667
same,relative viability,LK-2; first compound 0.1265 µM,0.587
same,relative viability,LK-2; first compound 0.4 µM,0.549
same,relative viability,LK-2; first compound 1.265 µM,0.902
same,relative viability,NCI-H1355; first compound 0.04 µM,0.848
same,relative viability,NCI-H1355; first compound 0.1265 µM,0.79
same,relative viability,NCI-H1355; first compound 0.4 µM,0.887
same,relative viability,NCI-H1355; first compound 1.265 µM,0.633
same,relative viability,NCI-H1437; first compound 0.04 µM,1.03
same,relative viability,NCI-H1437; first compound 0.1265 µM,1.09
same,relative viability,NCI-H1437; first compound 0.4 µM,0.969
same,relative viability,NCI-H1437; first compound 1.265 µM,0.55
same,relative viability,NCI-H1563; first compound 0.04 µM,1.22
same,relative viability,NCI-H1563; first compound 0.1265 µM,1.17
same,relative viability,NCI-H1563; first compound 0.4 µM,1.19
same,relative viability,NCI-H1563; first compound 1.265 µM,1.18
same,relative viability,NCI-H1734; first compound 0.04 µM,0.917
same,relative viability,NCI-H1734; first compound 0.1265 µM,0.938
same,relative viability,NCI-H1734; first compound 0.4 µM,0.816
same,relative viability,NCI-H1734; first compound 1.265 µM,0.823
same,relative viability,NCI-H2228; first compound 0.04 µM,0.726
same,relative viability,NCI-H2228; first compound 0.1265 µM,0.729
same,relative viability,NCI-H2228; first compound 0.4 µM,0.813
same,relative viability,NCI-H2228; first compound 1.265 µM,0.589
same,relative viability,NCI-H2405; first compound 0.04 µM,0.916
same,relative viability,NCI-H2405; first compound 0.1265 µM,0.932
same,relative viability,NCI-H2405; first compound 0.4 µM,0.908
same,relative viability,NCI-H2405; first compound 1.265 µM,0.603
same,relative viability,NCI-H322M; first compound 0.04 µM,0.913
same,relative viability,NCI-H322M; first compound 0.1265 µM,0.911
same,relative viability,NCI-H322M; first compound 0.4 µM,0.92
same,relative viability,NCI-H322M; first compound 1.265 µM,0.791
same,relative viability,NCI-H520; first compound 0.04 µM,0.833
same,relative viability,NCI-H520; first compound 0.1265 µM,1.13
same,relative viability,NCI-H520; first compound 0.4 µM,0.904
same,relative viability,NCI-H520; first compound 1.265 µM,0.712
same,relative viability,NCI-H661; first compound 0.04 µM,0.576
same,relative viability,NCI-H661; first compound 0.1265 µM,0.603
same,relative viability,NCI-H661; first compound 0.4 µM,0.572
same,relative viability,NCI-H661; first compound 1.265 µM,0.736
same,relative viability,PC-14; first compound 0.04 µM,0.937
same,relative viability,PC-14; first compound 0.1265 µM,0.947
same,relative viability,PC-14; first compound 0.4 µM,1.01
same,relative viability,PC-14; first compound 1.265 µM,0.798
same,relative viability,PC-3 [JPC-3]; first compound 0.04 µM,0.915
same,relative viability,PC-3 [JPC-3]; first compound 0.1265 µM,0.986
same,relative viability,PC-3 [JPC-3]; first compound 0.4 µM,0.943
same,relative viability,PC-3 [JPC-3]; first compound 1.265 µM,0.788
same,relative viability,RERF-LC-KJ; first compound 0.04 µM,0.86
same,relative viability,RERF-LC-KJ; first compound 0.1265 µM,0.862
same,relative viability,RERF-LC-KJ; first compound 0.4 µM,0.906
same,relative viability,RERF-LC-KJ; first compound 1.265 µM,0.807
same,relative viability,SW 1573; first compound 0.04 µM,0.753
same,relative viability,SW 1573; first compound 0.1265 µM,0.763
same,relative viability,SW 1573; first compound 0.4 µM,0.882
same,relative viability,SW 1573; first compound 1.265 µM,0.569
